Data published in ChEMBL document CHEMBL4017445, “Development and crystallographic evaluation of histone H3 peptide with N-terminal serine substitution as a potent inhibitor of lysine-specific demethylase 1” (Bioorg Med Chem, 2017).

Molecular target: Lysine-specific histone demethylase 1A (Homo sapiens, UniProt O60341)
Assay: Inhibition of human LSD1 (172 to 833 residues) assessed as reduction in H2O2 production using H3K4me2 (1 to 20 residues) peptide as substrate preincubated for 10 mins followed by substrate addition measured after 30 mins by peroxidase coupled enzyme assay

| Ki [µM] | Compound |
| --- | --- |
| 170 | CSCC[C@H](NC(=O)[C@@H](NC(=O)[C@H](CCCNC(=N)N)NC(=O)CO)[C@@H](C)O)C(=O)N[C@@H](CCC(N)=O)C(=O)N[C@H](C(=O)N[C@@H](C)C(=O)N[C@@H](CCCNC(=N)N)C(=O)N[C@@H](CCCCN)C(=O)N[C@@H](CO)C(=O)N[C@H](C(=O)NCC(=O)NCC(=O)N[C@@H](CCCCN)C(=O)N[C@@H](C)C(=O)N1CCC[C@H]1C(=O)N[C@@H](CCCNC(=N)N)C(=O)N[C@@H](CCCCN)C(=O)N[C@@H](CCC(N)=O)C(=O)N[C@@H](CC(C)C)C(N)=O)[C@@H](C)O)[C@@H](C)O |
| > 500 | CSCC[C@H](NC(=O)[C@@H](NC(=O)[C@@H](N)CCCNC(=N)N)[C@@H](C)O)C(=O)N[C@@H](CCC(N)=O)C(=O)N[C@H](C(=O)N[C@@H](C)C(=O)N[C@@H](CCCNC(=N)N)C(=O)N[C@@H](CCCCN)C(=O)N[C@@H](CO)C(=O)N[C@H](C(=O)NCC(=O)NCC(=O)N[C@@H](CCCCN)C(=O)N[C@@H](C)C(=O)N1CCC[C@H]1C(=O)N[C@@H](CCCNC(=N)N)C(=O)N[C@@H](CCCCN)C(=O)N[C@@H](CCC(N)=O)C(=O)N[C@@H](CC(C)C)C(N)=O)[C@@H](C)O)[C@@H](C)O |
